The values below are quoted from earlier work in patent publication US20260009077A1, “COMPOSITIONS AND METHODS FOR TREATING HYPOTHYROIDISM” (THE UNIVERSITY OF CHICAGO, priority 2022, published 2026).

`N[C@@H](Cc1cc(I)c(Oc2cc(I)c(O)c(I)c2)c(I)c1)C(=O)O` [levothyroxine]: the “proportion of patients noticing reemergence of hypothyroid symptoms” value (after switch from T4 and T3 containing treatment to T4 only, despite appropriate T4 doses) is 15-20%. Also, the “patients in whom treatment restores normal life” value (hypothyroidism patients, daily tablets, standard of care) is “at least 80%”.
